Experimental data as given in US6423519B1, “Compositions and methods for inhibiting fungal growth” (GPC Biotech Inc., priority 1998, dated 2002).
Converted amounts (≈) assume the structure as drawn. Like-named read-outs stand apart in the source and are kept apart here.

Tests used:
H460 Cell Line = experiment: Cytotoxicity of GGPTase inhibitors in human cells, H460 (Sulforhodamine B); assay type: cell-based; conditions: NCI-H460, read-out: Human cell IC50 (nM) H460
Description: (§1) (A) Plate out cells at predetermined concentration in a volume of 150 μl.
(§2) (B) Allow cells to adhere to plate for twenty four hours
(§3) (C) Add compounds to cells at predetermined concentration (62.5 μg/mL down four-fold, 8 dilutions) n=2
(§4) (D) Cells are exposed to drug for 7 days for the IMR90 Cell Line, and a period of 3 days for the H460 Cell Line.
(E) 1. H460 Cells are fixed in TCA, rinsed, stained with Sulforhodamine B stain, and the stain is solubilized for a final OD read.

C. albicans = experiment: Determination of minimum fungicidal concentration (MFC); assay type: cell-based; conditions: Candida albicans
Description: After the required time course for the MIC determination, the minimum fungicidal concentration can then be determined by plating out the entire contents of the well of the microtitre plates onto YPD or Sabourand plates. These plates are then incubated at 35° C. for 24-48 hrs. The MFC corresponds to the concentration of compound where no cellular growth is observed on the plate. For compound 99a, and MFC was calculated of 2 μg/ml.

human GGTase = human GGTase (Homo sapiens, UniProt P53609); experiment: Human GGTase inhibition (Hu GG); assay type: biochemical
Text: As described below, a variety of different compounds were synthesized and tested for inhibitory activity against human and Candida GGTase. Exemplary synthesis schemes for generating prenyltransferase inhibitors useful in the methods and compositions of the present invention are shown in FIGS. 1-56. Tables 1-5 provide Structure-Activity relationship (SAR) data for several different classes of prenyltransferase inhibitors.

IMR90 Cell Line = experiment: Cytotoxicity of GGPTase inhibitors in human cells, IMR90 (MTT); assay type: cell-based; conditions: IMR-90, read-out: Human cell IC50 (nM) IMR90
Description: as §1, §2, §3, §4
2. IMR90 Cells have 3-{4,5-Dimethylthiazol-2-yl}-2,5-diphenyltetrazolium bromide (MTT) added to them for three hours prior to final read out. After the three hours, media and MTT are removed and MTT crystals are solubilized in 100% DMSO for final OD read.

MycCaRHO1 = experiment: Prenylation state / localisation of newly synthesized MycCaRHO1 (fractionation, Western blot); assay type: cell-based, C. albicans; conditions: 3 μg/ml, strain DIY-BL2-058, versus mock (DMSO) treated cells
Description: To look at the effect of GGPTase I inhibitors in vivo a recombinant C. albicans strain engineered to express a Myc tagged CaRHO1 under the control of the C. albicans phosphoenolpyruvate carboxykinase 1 (PCK1) promoter is used. This promoter is repressed by glucose and derepressed by gluconeogenic carbon sources such as succinate. It should also be possible to be look at the endogenous substrates of the GGPTase I. Cells are treated with a sublethal dose of compound for a period of time which has been established from a kill curve analysis in the appropriate media. After the treatment time, cells are harvested and whole cell extracts (WCE) made, these extracts are then resolved by high speed centrifugation into cytosolic and membrane fractions. Visualisation of the localisation of the MycCaRHO1 is achieved by sodium dodecyl sulfate-polyacrylamide gel electrophoresis (SDS-PAGE) and Western blotting. […]
Cells of strain DIY-BL2-058 were grown overnight in YNB supplemented with 1 μg/ml histidine, 2 μg/ml methionine, 2 μg/ml tryptophan, 200 μg/ml glutamine and 2% glucose at 220 rpm at 31° C. The cell number was then determined, cells were pelleted by centrifugation and resuspended in fresh media at a density of 1×10^7 cells/ml and incubated as above. […]
Fractions were thawed on ice. The protein concentration was determined using the standard Bradford method for the WCEs and cytosolic fraction. […]

C. albicans GGPTase = target: T1, C. albicans GGPTase (Candida albicans, UniProt Q8J224+Q9Y764); experiment: biochemical
T1 sequence (Q9Y764 1-398): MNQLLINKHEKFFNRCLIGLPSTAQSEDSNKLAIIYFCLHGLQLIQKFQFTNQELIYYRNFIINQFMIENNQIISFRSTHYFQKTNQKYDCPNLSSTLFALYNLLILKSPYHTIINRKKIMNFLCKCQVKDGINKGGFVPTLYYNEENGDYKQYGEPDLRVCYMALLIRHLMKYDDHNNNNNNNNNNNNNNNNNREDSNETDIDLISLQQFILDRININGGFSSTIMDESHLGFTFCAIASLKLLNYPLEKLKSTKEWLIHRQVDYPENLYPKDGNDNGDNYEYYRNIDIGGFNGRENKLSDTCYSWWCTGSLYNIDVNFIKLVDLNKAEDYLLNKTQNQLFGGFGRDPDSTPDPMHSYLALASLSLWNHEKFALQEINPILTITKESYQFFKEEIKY
T1 sequence (Q8J224 1-306): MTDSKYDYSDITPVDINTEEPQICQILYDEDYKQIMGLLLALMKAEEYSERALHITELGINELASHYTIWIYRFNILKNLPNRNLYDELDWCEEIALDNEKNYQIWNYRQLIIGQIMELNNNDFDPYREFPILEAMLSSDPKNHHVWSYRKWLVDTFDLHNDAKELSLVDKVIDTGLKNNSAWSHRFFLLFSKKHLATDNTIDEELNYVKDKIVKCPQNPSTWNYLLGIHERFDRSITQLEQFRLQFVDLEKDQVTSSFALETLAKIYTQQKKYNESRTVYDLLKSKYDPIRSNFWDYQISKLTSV
Description: Plate test compounds (10 μL per well) at predetermined concentration in 50% DMSO. For background control (blank) and reaction control (negative), add 10 μL of 200 μM GGPP and 10 μL 50% DMSO, respectively. Prepare assay buffer: 50 mM Tris, pH7.5, 20 mM KCL, 5 mM MgCl2, 5 μM ZnCl2, 0.5 mM Zw(3-14), 2 mM DTT and 0.1 mg/mL BSA.
Add 20 μL of C. albicans GGPTase and ^3H-GGPP in assay buffer to test compound. Preincubate enzyme and ^3H-GGPP with test compound for 15 minutes at room temperature. Add 20 μL C. albicans Rho in assay buffer. Incubate for 30 minutes at room temperature. Final assay conditions are 2 nM C. albicans GGPTase, 250 nM ^3H-GGPP and 250 nM C. albicans Rho.
Add 100 μL 15 mM GGPP, 50 mM Tris, pH7.0 and 2% BSA to quench reaction. Transfer reaction to Nickel chelate FlashPlate. Allow his-tagged C. albcians Rho to capture onto plate. Rinse plate 1× with 200 μL 20 mM Tris, pH7.0. Read in TOPCOUNT.

CC(C)C[C@H](NC(=O)C1(c2ccccc2)CCN(C(=O)[C@@H](N)CS)CC1)C(=O)N[C@@H](C)C(=O)O [Compound 99a]
IC50 (H460 Cell Line): > 10000 nM | MFC (C. albicans; read-out: Candida MFC (g/mL)): 2 µg/mL (≈ 4.06 µM) | MFC (C. albicans; read-out: MFC): 2 µg/mL (≈ 4.06 µM) | IC50 (human GGTase; Table 3 Piperidine Analogs, read-out: IC50 (nM) Hu GG): > 500 nM | IC50 (human GGTase; Table 5, read-out: IC50 (nM) Human): > 500 nM | IC50 (IMR90 Cell Line): > 10000 nM | abundance of MycCaRHO1 in the cytosolic fraction (FIG. 57) (MycCaRHO1): increases the abundance of MycCaRHO1 in the cytosolic fraction | IC50 (C. albicans GGPTase; Table 3 Piperidine Analogs, read-out: IC50 (nM) Ca GG): < 50 nM | IC50 (C. albicans GGPTase; Table 5, read-out: IC50 (nM) Candida): < 50 nM
